Read-outs that look alike come from different tables or passages of the source.
Assays:
[1] = target: T1, recombinant human PAI-1 (Homo sapiens, UniProt P05121); assay: Test Example 4: Human PAI-1 Inhibitory Activity (amount of PAI-1 bound to plate-coated one-chain tPA, ELISA); format: biochemical; design: purchased Molecular Innovations, Inc; details: human PAI-1 bound to tPA, read-out: Inhibition Rate of PAI-1 Activity (%); for inhibition at 0.3 µM: Compound Concentration 0.3µM; for inhibition at 1 µM: Compound Concentration 1µM; for inhibition at 3 µM: Compound Concentration 3µM
Procedure: 100 µl of tPA solution, where one-chain recombinant tPA (hereinafter reffered to as tPA; American diagnostica, inc.) had been diluted with Buffer A to acheive a concentration of 10 µg/ml, was added to each well of a 96-well plate (Nunc Maxisorp), and the plate was incubated for one night at 4 °C to be coated with tPA. Then, after suction of tPA solution from the 96-well plate, the plate was rinsed successively with Buffer A and Buffer B. To Buffer B, solutions of the compound according to the present invention dissolved with DMSO (final DMSO concentration: 0.2 %) and recombinant human PAI-1 (Molecular Innovations, Inc.) were added. The mixtures were blended so that the final concentrations would be 0.1 to 3.0 µM and 50 ng/ml respectively, and were incubated for 15 minutes on ice. These mixed solutions were added to the rinsed 96-well plate at 100 µl/well, and incubated for 60 minutes at room temperature. To prepare a calibration curve, PAI-1 solutions without the compound according to the present invention (solutions where the final concentrations being 100, 50, 25, 12.5, 6.25, 3.13, or 1.56 ng/ml PAI-1) were added at 100 µl/well, and the plate was incubated for 60 minutes at room temperature, as standard.
After incubation, the reaction mixture was removed by suction, and each well was rinsed with Wash Buffer. Next, anti-human PAI-1 monoclonal antibody (PROGEN Inc.) diluted with Buffer C to be 3.0 µg/ml was added to the 96-well plate at 100 µl/well, and the plate was incubated for 1 hour at room temperature. After rinsing each well with Wash Buffer, alkaline phosphatase-labeled goat anti-mouse IgG (H+L) (Jackson ImmunoResearch, Inc.) diluted with Buffer D to be 0.12 µg/ml was added at 100 µl/well, and the plate was incubated for 1 hour at room temperature. After rinsing each well with Wash Buffer, 1.0 mg/ml p-Nitrophenyl Phosphate (SIGMA) was added to the 96-well plate at 100 µl/well to start the reaction. After 30 to 60 minutes, 25 µl of 0.5 N NaOH was added to stop the reaction, and the absorbance was measured at 405 nm using a multiplate reader (GENios; TECAN G.M.B.H.).
Based on the calibration curve prepared from the standard wells, amounts of PAI-1 bound to tPA in the wells that had been treated with the compound according to the present invention were calculated, and the PAI-1 inhibition rates by the compounds according to the present invention were obtained by the following equation. [API-1InhibitionRate(%)] = [1-(amountofPAI-1boundtotPaonthewellbytreatmentwiththecompondaccordingtothepresentinvention)/(amountofPAI-1boundtotPAonthewellbytreatmentwithPAI-1solutionnotincledingthecompondaccordingtotheinvention(solution having the final concentration of 50 nb/ml PAI-1)] × 100 [formula] • <Composition of Buffer A> 0.1 M Tris-HCl, 150 mM NaCl, pH 7.7 • <Composition of Buffer B> 50 mM sodium phosphate, 0.1 M NaCl, 1 mM EDTA, pH 6.6 • <Composition of Buffer C> 50 mM sodium phosphate, 100 mM NaCl, pH 7.4 • <Composition of Buffer D> 0.01 M Tris-HCl, 0.25 M NaCl, pH 8.0 • <Compositon of Wash Buffer> 0.05 % Tween 20, 0.1 % BSA in Buffer A • <Composition of p-Nitrophenyl Phosphate solution> 1 M Diethanolamine 0.5 mM MgCl2, p-Nitrophenyl phosphate, pH 9.8

[2] = system: Rat AV Shunt Model; assay: Test Example 5: Anti-thrombotic Activity (Rat AV Shunt Model), thrombus weight; format: in vivo, Crlj: CD (SD) rats; details: orally for 4 days, male rats, n=5, average ± S.E., vehicle 72.7±2.7
Procedure: AV shunt model using 7-week old male Crlj: CD (SD) rats were prepared, and anti thrombotic activities when the compounds according to the present invention were administered orally were examined.
Required amount of the test compounds were weighed and suspended by adding 0.5 % CMC (carboxymethylcellulose)-Na solution little by little, and the solutions (10 mg/kg or 30 mg/kg solution) were prepared so that their final concentration became 2 mg/ml or 6 mg/ml using a graduated cylinder. 5 ml was prepared for 1 course.
To 7-week old Crlj: CD (SD) male rats, 5 ml/kg of vehicle (0.5 % CMC-Na solution) or 5 ml/kg of the administering solution of the test compound (10 mg/kg or 30 mg/kg) were administered orally for 4 days. The administration on the 4th day was carried out about 1 hour before the following perfusion start.
On the connected part where the silk thread was through, parafilm was wrapped around to avoid blood leakage. Rats were anesthetized with pentobarbital (50 mg/kg; intraperitoneally). Saline was filled in the above catheter, and each of the ends of the catheter was inserted in right carotid artery and […], respectively, and blood was circulated. 30 minutes later, the catheter was pinched with forceps to stop blood flow, and tube parts where the silk thread was through were cut and removed. The silk thread was carefully removed from the tubes, remaining wet weight was weighed after removing the liquid phase with filter paper, and further subtraction of the weight of the silk thread, gave the thrombus weight.
For the thrombus weight in each group, an average vale ± standard error (S.E.) was calculated. For the significance test between the vehicle administered group and the compound according to the present invention administered group, Dunnett's multiple comparison was carried out (significance level 5 %). For the test, the SAS System Release 8.2 (TS2MO) for Windows (Registered Trademark) (SAS Institute Inc.) and its coorperative system EXSAS Ver. 7.10 (Arm Systex Co. Ltd.) were employed.

[3] = target: T2, recombinant rat PAI-1 (Rattus norvegicus, UniProt P20961); assay: biochemical; details: read-out: Inhibition Rate of PAI-1 Activity (%)
T2 sequence (P20961 24-402): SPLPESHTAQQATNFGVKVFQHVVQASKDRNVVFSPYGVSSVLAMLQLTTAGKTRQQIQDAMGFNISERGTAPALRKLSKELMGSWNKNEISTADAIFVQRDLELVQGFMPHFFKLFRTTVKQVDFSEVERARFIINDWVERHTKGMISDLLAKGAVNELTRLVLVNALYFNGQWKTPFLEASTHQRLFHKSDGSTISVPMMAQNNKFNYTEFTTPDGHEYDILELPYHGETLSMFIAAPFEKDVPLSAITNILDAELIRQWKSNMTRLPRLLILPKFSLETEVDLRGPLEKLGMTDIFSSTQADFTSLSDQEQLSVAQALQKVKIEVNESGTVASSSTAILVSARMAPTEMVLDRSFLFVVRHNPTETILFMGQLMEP

[4] = target: T1, recombinant human PAI-1; assay: biochemical; details: for inhibition at 25 µM: read-out: Inhibition Rate of PAI-1 Activity (%), Compound Concentration 25µM
[5] = target: T1, recombinant human PAI-1; assay: Test Example 2: Human PAI-1 Inhibitory Activity (pH 7.4 HEPES buffer, 10 minutes incubation with two-chain tPA); format: biochemical; design: purchased Molecular Innovations, Inc; details: read-out: Inhibition Rate of PAI-1 Activity (%)
Procedure: 0.1 M HEPES, 0.1 M NaCl. 1 mM EDTA. 0.1 % Polyethylene glycol 8,000 (Hampton Research Corporation),
2 mM Dimethyldecylphoshine oxide [Apo-10] (Fluka Corporation)

[6] = read-out: Inhibition Rate of PAI-1 Activity (%), Compound Concentration 5µM
[7] = read-out: Inhibition Rate of PAI-1 Activity (%), Compound Concentration 10µM

T1 sequence (P05121 24-402): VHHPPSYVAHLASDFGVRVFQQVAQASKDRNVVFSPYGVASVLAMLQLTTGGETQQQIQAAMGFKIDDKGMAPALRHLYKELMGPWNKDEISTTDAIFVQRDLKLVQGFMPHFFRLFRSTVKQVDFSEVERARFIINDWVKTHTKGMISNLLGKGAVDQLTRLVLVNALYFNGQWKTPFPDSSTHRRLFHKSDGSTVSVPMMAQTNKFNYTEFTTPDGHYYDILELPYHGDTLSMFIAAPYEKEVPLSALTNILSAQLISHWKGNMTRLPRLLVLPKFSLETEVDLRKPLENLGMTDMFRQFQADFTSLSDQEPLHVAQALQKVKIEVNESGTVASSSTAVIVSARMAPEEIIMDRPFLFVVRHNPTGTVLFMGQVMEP

SMILES | inhibition at 0.3 µM [1] | inhibition at 1 µM [1] | inhibition at 3 µM [1] | Thrombus Weight ([2]; Dose 10 mg/kg/day) | inhibition at 0.3 µM [3] | inhibition at 1 µM [3] | inhibition at 3 µM [3] | inhibition at 10 µM [3] | inhibition at 5 µM ([4]; read-out: Inhibition Rate of PAI Activity (%), Compound Concentration 5µM) | inhibition at 10 µM ([4]; read-out: Inhibition Rate of PAI Activity (%), Compound Concentration 10µM) | inhibition at 0.1 µM [5] | inhibition at 0.3 µM [5] | inhibition at 1 µM [5] | inhibition at 3 µM [5] | Thrombus Weight ([2]; Dose 30 mg/kg/day) | inhibition at 5 µM [4, 6] | inhibition at 10 µM [4, 7] | inhibition at 25 µM [4]
CC(C)(C)c1ccc(COc2ccc(-c3ccc(OC(F)(F)F)cc3)cc2CCC(=O)O)cc1 [Compound 5] | 9% | 23% | 67% | 57.5 ± 5.0 mg | 5% | 15% | 52% | 93% | 87% | 95% | 2% | 13% | 34% | 90% |  |  |  | 
CN(C(=O)C(=O)O)c1cc(-c2ccc(OC(F)(F)F)cc2)ccc1OCc1ccc(C(C)(C)C)cc1 [Compound 17] |  |  |  |  |  |  |  |  |  |  |  |  |  |  | 60.4 ± 3.8 mg |  |  | 
CCCCOc1ccc(-c2ccc(OC(F)(F)F)cc2)cc1N(Cc1ccc(C(C)(C)C)cc1)C(=O)C(=O)O [Compound 189] | 16% | 30% | 70% |  | 9% | 32% | 93% | > 99% |  |  | 4% | 2% | 60% | 97% |  | 87% | 95% | 
CCCCCOc1ccc(-c2ccc(OC(F)(F)F)cc2)cc1N(CCCCc1ccccc1)C(=O)C(=O)O [Compound 226] | 11% | 26% | 65% |  | 9% | 49% | 92% | > 99% |  |  | 0% | 17% | 89% | 99% |  | 85% | 92% | 
CCC(CC)Oc1ccc(N(Cc2ccc(C(C)(C)C)cc2)C(=O)C(=O)O)cc1-c1ccc(OC(F)(F)F)cc1 [Compound 197] | 21% | 34% | 73% |  | 0% | 37% | 84% | 75% |  |  | 6% | 1% | 38% | > 99% |  | 90% | 92% | 73%
CCCOc1ccc(N(Cc2ccc(C(C)(C)C)cc2)C(=O)C(=O)O)cc1-c1ccc(OC(F)(F)F)cc1 [Compound 185] | 10% | 20% | 49% |  | 3% | 17% | 85% | 76% |  |  | 0% | 9% | 34% | > 99% |  | 81% | 87% | 89%
CCCCc1ccc(CN(C(=O)C(=O)O)c2ccc(-c3ccc(C(C)(C)C)cc3)cc2)cc1 [Compound 206] | 0% | 17% | 40% |  | 3% | 29% | 90% | 88% |  |  | 3% | 13% | 66% | > 99% |  | 78% | 92% | 89%
CC(C)(C)c1ccc(CN(C(=O)C(=O)O)c2ccc(-c3ccc(OC(F)(F)F)cc3)cc2)cc1 [Compound 129] | 5% | 15% | 19% | 56.7 ± 3.8 mg | 2% | 14% | 46% | 90% |  |  | 1% | 3% | 19% | 86% |  | 75% | 95% | 

Reference: EP2272817A1, “PAI-1 INHIBITOR” (Institute of Medicinal Molecular Design, Inc., priority 2008, dated 2009)
